What was measured:
CFTR [1] = molecular target: T1, CFTR (Mus musculus, UniProt P26361, DEL508-508); test: Immunoblot of CFTR protein levels in tissues of CftrF508del mice; type: in vivo; details: i.p. 5 d, then 20 d of wash out, lung and small intestinal tissue
T1 construct: the Ussing chamber experiments (on small intestinal tissues); from tissue; host or cells: small intestine (Ussing chamber); lung and small intestine homogenates (immunoblot) of CftrF508del mice
Source text: CF mice homozygous for the delF508-CFTR mutation (abbreviated CftrF508del) in the 129/FVB outbred background (CftrtmlEUR, F508del, FVB/129) were obtained from Erasmus Medical Center Rotterdam, The Netherlands (CF coordinated action program EU FP6 LSHM-CT-2005-018932). These studies and procedures were approved by the local Ethics Committee for Animal Welfare (IACUC No 713). Young adult CF mice and their wild-type (wt) littermates were housed in static isolator cages at the animal care specific pathogen-free facility of Charles River (Calco, Italy). CftrF508del mice were treated with daily intraperitoneal injections of cysteamine (100 μl of 0.05 M in PBS) (Sigma Aldrich, M9768) or IE1 (100 μl of 0.075-0.05-0.025-0.0125 M, in PBS) for 5 d or with cysteamine (5 d) or IE1 different concentrations followed by 10 d or 20 d of PBS alone (n=5 mice per group) (19,20).
The proteins of cell lines lysates or lung or small intestine homogenates, obtained from treated and untreated cells or mice, were quantified by a Bio-Rad protein assay to ensure equal protein loading before immunoblot analysis. Fifty micrograms of proteins were loaded in each lane. […]

CFTR [2] = molecular target: T1, CFTR; test: Ussing chamber CFTR function in CftrF508del mice; type: in vivo
Protocol: Driven by the positive outcome of the cell lines (immortalized and primary nasal cell) experiments, we next investigated the possibility that IE1 could rescue the CFTR protein and function as well as re-establish the autophagy pathway in CF mice model. To test this hypothesis, we used F508del-Cftr homozygous (CftrF508del\F508del) mice and control mice (Cftr WT). CftrF508del mice were administered intraperitoneally (i.p.) for 5 d with cysteamine or different concentrations of IE1 (FIG. 7). […] Next, CftrF508del mice were administered intraperitoneally (i.p.) for 5 d with cysteamine or with 3 different concentrations of IE1 (0.05M, 0.025M or 0.0125M) followed by 10 d or 20 d of vehicle only (FIG. 9).
CF mice homozygous for the delF508-CFTR mutation (abbreviated CftrF508del) in the 129/FVB outbred background (CftrtmlEUR, F508del, FVB/129) were obtained from Erasmus Medical Center Rotterdam, The Netherlands (CF coordinated action program EU FP6 LSHM-CT-2005-018932). These studies and procedures were approved by the local Ethics Committee for Animal Welfare (IACUC No 713). Young adult CF mice and their wild-type (wt) littermates were housed in static isolator cages at the animal care specific pathogen-free facility of Charles River (Calco, Italy). […]

CFTR [3] = molecular target: CFTR (Homo sapiens, UniProt P13569, DEL508-508); test: Immunoblot detection of CFTR in CFBE cells; type: cell-based; design: expressed in transfected cells; host or cells: CFBE41o- cells
Chain of CFTR (Homo sapiens, UniProt P13569, DEL508-508) (P13569 with tags, fused parts or gaps DEL508-508): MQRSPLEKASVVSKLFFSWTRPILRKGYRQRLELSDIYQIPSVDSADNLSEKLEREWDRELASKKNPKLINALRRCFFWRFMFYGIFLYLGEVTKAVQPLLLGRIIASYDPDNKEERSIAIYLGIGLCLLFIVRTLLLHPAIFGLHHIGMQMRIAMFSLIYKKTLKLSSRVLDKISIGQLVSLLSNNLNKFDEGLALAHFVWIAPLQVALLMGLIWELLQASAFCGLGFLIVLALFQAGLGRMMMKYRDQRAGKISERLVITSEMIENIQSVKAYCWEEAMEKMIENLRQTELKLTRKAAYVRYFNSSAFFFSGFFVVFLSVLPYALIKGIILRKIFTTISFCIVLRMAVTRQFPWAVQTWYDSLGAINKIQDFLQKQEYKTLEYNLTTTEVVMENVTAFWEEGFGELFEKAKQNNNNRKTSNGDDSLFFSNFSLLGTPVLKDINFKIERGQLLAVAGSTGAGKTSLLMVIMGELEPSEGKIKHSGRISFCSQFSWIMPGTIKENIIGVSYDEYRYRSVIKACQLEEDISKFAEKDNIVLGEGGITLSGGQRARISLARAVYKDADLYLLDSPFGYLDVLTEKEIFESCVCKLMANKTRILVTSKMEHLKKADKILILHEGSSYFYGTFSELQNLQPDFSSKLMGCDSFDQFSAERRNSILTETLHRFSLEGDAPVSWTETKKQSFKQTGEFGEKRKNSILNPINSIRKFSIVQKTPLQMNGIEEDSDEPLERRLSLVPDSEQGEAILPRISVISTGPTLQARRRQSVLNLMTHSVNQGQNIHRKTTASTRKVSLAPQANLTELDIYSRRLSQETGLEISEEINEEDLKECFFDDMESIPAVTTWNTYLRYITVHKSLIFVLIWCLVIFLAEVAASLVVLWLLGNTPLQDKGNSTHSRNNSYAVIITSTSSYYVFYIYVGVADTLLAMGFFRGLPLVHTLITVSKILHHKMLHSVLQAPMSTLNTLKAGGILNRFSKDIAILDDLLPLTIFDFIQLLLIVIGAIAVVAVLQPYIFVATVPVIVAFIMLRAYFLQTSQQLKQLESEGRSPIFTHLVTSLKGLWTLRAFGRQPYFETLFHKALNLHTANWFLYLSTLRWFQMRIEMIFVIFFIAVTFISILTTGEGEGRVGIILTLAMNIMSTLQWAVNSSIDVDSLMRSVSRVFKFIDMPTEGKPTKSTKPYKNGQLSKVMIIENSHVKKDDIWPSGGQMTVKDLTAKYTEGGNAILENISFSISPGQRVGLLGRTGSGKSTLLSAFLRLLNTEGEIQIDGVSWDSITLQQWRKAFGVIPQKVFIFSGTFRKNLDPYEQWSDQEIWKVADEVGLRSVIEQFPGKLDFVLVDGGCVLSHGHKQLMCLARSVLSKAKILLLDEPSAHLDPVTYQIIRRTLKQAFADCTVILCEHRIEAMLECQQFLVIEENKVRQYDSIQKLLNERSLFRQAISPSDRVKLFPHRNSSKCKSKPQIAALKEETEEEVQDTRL
Protocol: Cell lines experiments. CFBE41l- and 16HBE14o-cells were cultured in Minimum Essential Medium (MEM) with Earle's salt, 200 mM L-Glutamine, 10% FBS and penicillin/streptomycin. CFBE41o-cells were transfected with AF508-CFTR at 37° C. and incubated for 18 h with cysteamine (250 μM) or different concentration of IE1.
(§1) The proteins of cell lines lysates or lung or small intestine homogenates, obtained from treated and untreated cells or mice, were quantified by a Bio-Rad protein assay to ensure equal protein loading before immunoblot analysis. Fifty micrograms of proteins were loaded in each lane. Antibodies against SQSTM1, (Sigma Aldrich,P0067) 1:1000, BECN1 (Abcam, ab58878), 1:1000, CFTR clone CF3 (Abcam, ab2784) 1:1000 or anti-CFTR antibody 660 1:1000, Phospho-p44/42 MAPK (Erk1/2) (Thr202/Tyr204) (Cell Signaling Technology, #91101) 1:1000, TG2 (CUB7402, NEOMARKER) 1:1000 were used. Normalization was performed by probing the membrane with anti-β-actin (Cell Signaling, #4970) 1:1000 or anti-α-tubulin (Cell Signaling Technology, 2148) 1:1000.

[4] = system: BECN1, SQSTM1/p62, (phospho)p42/44 MAPK; test: Immunoblot of autophagy and inflammation markers in CFBE cells; type: cell-based; details: 0.1 μM
Protocol: Cell lines experiments. CFBE41l- and 16HBE14o-cells were cultured in Minimum Essential Medium (MEM) with Earle's salt, 200 mM L-Glutamine, 10% FBS and penicillin/streptomycin. […]
as §1

TG2 = molecular target: T2, TG2 (Homo sapiens, UniProt P21980); test: Inhibition of the PDI activity of TG2; type: biochemical
T2 sequence (P21980 1-687): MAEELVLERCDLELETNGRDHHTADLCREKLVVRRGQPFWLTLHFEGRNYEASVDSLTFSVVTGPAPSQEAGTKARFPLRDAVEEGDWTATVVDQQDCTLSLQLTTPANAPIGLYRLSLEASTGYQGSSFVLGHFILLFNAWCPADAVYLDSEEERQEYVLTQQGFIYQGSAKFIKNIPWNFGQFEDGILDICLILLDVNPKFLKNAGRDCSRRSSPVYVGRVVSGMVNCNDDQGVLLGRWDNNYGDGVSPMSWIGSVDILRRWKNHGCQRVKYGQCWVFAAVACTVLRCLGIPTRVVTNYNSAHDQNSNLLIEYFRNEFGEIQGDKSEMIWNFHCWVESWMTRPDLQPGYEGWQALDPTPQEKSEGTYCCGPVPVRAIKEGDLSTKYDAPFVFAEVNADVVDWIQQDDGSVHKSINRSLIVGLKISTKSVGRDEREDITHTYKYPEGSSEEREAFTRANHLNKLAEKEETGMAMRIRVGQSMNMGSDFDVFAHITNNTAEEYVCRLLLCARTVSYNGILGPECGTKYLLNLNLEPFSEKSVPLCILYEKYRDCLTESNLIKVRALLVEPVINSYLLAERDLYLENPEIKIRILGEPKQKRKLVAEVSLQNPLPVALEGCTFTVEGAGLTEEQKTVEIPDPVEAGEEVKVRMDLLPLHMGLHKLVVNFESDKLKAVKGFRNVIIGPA

T1 sequence (P26361 with tags, fused parts or gaps DEL508-508): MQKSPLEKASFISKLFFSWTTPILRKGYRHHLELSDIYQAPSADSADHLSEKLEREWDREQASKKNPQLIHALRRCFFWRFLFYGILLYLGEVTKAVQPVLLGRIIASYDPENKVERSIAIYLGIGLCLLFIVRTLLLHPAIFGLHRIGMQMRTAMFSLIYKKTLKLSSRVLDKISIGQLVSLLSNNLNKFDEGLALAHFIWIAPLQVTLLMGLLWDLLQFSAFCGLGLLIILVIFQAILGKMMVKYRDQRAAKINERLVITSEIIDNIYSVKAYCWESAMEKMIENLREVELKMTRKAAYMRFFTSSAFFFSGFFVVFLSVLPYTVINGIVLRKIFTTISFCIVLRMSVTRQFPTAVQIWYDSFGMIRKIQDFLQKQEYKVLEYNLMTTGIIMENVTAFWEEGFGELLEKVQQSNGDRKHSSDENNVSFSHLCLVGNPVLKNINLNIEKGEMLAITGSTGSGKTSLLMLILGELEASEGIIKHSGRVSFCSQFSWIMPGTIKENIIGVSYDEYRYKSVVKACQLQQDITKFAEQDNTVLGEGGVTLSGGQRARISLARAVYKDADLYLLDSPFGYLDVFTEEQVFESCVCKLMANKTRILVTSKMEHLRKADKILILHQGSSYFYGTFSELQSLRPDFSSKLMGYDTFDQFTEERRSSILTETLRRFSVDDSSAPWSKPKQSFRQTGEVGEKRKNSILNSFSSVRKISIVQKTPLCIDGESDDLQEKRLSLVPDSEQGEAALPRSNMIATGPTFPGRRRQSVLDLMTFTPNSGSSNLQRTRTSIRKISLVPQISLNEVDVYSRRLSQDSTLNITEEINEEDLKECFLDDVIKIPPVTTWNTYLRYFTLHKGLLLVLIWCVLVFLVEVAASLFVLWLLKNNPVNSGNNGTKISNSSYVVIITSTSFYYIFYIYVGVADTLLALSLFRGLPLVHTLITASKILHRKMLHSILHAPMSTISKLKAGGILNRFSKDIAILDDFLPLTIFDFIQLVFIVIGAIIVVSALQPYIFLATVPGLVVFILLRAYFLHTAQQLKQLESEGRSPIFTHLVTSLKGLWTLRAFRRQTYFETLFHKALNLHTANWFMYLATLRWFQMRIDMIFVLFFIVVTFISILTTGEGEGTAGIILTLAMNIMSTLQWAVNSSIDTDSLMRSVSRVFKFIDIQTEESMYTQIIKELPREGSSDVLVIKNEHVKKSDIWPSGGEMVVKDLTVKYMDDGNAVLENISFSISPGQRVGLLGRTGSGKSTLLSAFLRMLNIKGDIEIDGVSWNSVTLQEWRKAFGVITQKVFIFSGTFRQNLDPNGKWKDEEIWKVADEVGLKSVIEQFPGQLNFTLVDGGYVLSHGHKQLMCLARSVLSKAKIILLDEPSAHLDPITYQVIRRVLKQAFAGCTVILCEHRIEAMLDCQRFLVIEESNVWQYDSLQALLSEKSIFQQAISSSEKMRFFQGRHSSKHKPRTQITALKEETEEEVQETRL

NCCCS [IE1, 3-aminopropane-1-thiol]
CFTR protein levels after wash out (immunoblot) (CFTR [1]): sustaining the protein well beyond 20 d of wash out | Sustaining CFTR function after wash out, compared with cysteamine (CFTR [2]; i.p. 5 d at 0.05M, 0.025M or 0.0125M, then 20 d of vehicle only): more effective than cysteamine | Rescue of CFTR function (Ussing chamber, small intestinal tissues) (CFTR [2]; i.p. for 5 d, IE1 concentration 0.05 to 0.00125): highly effective | PM-resident CFTR protein (CFTR [3]; 0.1 μM): a sizeable fraction of the channel resided at the PM | PM-resident CFTR protein after washout (CFTR [3]; 0.1 μM, 24 h of washout): maintained | PM-resident CFTR protein after washout (CFTR [3]; 48 h of washout): decreases | PM-resident CFTR protein after washout with EGCG added (CFTR [3]; 48 h of washout, EGCG added): completely maintained | BECN1 level [4]: able to restore BECN1 | Inflammation biomarkers (phospho)p42/44 MAPK [4]: decrease | p62 levels [4]: reduce p62 levels | Effect on (phospho)p42/44 MAPK after 48 h in presence of EGCG ([4]; 48 h, EGCG): maintained | Effect on BECN1 and p62 after 48 h with EGCG addition ([4]; 48 h, EGCG addition): preserved | Effect on (phospho)p42/44 MAPK after 48 h ([4]; after 48 h): completely lost | Effect on BECN1 and p62 after 48 h ([4]; after 48 h): disappears | Ability to inhibit the PDI activity of TG2 (TG2): confirmed

Reference: US20200179312A1, “ANALOGUES OF CYSTEAMINE AS THERAPEUTIC AGENTS FOR CYSTIC FIBROSIS” (I.E.R.F.C. EUROPEAN INSTITUTE FOR CYSTIC FIBROSIS RESEARCH, priority 2018, published 2020)
